Reference: BindingDB's records for doi:10.1021/jm801475n (University of Dundee, 2009)
pKd: −log10 of the molar value.

Molecular target: T1, 2-C-methyl-D-erythritol 2,4-cyclodiphosphate synthase (Escherichia coli (strain K12), UniProt P62617)
T1 sequence (P62617 whole entry): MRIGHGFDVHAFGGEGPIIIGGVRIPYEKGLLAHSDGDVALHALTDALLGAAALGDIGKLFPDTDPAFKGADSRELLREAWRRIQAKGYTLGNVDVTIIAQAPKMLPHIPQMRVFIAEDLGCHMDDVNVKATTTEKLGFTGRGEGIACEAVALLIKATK
Experiment: SPR Biosensor Assay
Conditions: pH 7; 10 °C
Experimental: An SPR assay was used to determine the binding affinities of compounds. Experiments were performed on a Biacore 3000 (Biacore, Uppsala, Sweden) instrument with CM5 research grade chips (Biacore, Uppsala, Sweden). Sensorgrams were recorded at a frequency of 2.5 Hz. EcIspF was immobilized using amine-coupling chemistry with readings between 4500 and 5500 response units were obtained. After immobilization, a 6 min injection at 5 uL min-1 of 1 M ethanolamine was used to quench excess active succinamide ester groups. SPR binding experiments with EcIspF were performed at 10 deg C in 50 mM sodium phosphate pH 7 and 2 mM MgCl2 at a flow rate of 30 uL min-1. The sensor surface was regenerated between experiments by applying the running buffer for 20 min to dissociate any ligand complex. This was followed by a further 20 min stabilization period. The 40 min total regeneration time between experiments helped to eliminate any carry-over of EcIspF bound to ligand. Each injection at a given concentration was repeated three times. Blank injections were included for each measurement series and subtracted from the data. The equilibrium (steady state) binding curves were analyzed by nonlinear regression and fit to a one-to-one Langmuir binding model. All ligands assessed by SPR were greater than 95% purity as established by high-performance liquid chromatography or combustion analysis.

Work on `N[C@@H](Cc1c[nH]c2ccccc12)C(=O)NO` [Tryptophanhydroxamate, 13] yielded a pKd of 5.72.
